Data taken from ChEMBL document CHEMBL2046268 (Eur J Med Chem, 2012).
Calls of active or inactive are those of the source. The rule behind the calls is not given here. *1 amine or outer side, *2 acyl side, *3 side chain or, on linkers, in order; H or OH if unused. Where a SMILES comes first, the peptide text is derived from it. Bridges are numbered along the chain shown (N, C = ends). Roman numbers before positions name the chains, in order. [ ]: non-standard residue; d: D form. Actinocin(1to9) = Cc1c2oc3c(C)ccc(C(=O)[*:2])c3nc-2c(C(=O)[*:1])c(N)c1=O; NMeV = CN[C@H](C(=O)O)C(C)C; Sar = CNCC(=O)O

Columns and labels:
Caspase-3 (Homo sapiens) [1] = target: T1, Caspase-3 (Homo sapiens) (UniProt P42574); assay: Induction of caspase 3 activation in human HeLa cells using Ac-DEVD-pNA at 8 uM after 4 hrs by Bradford assay; type: cell-based
T1 sequence (whole entry): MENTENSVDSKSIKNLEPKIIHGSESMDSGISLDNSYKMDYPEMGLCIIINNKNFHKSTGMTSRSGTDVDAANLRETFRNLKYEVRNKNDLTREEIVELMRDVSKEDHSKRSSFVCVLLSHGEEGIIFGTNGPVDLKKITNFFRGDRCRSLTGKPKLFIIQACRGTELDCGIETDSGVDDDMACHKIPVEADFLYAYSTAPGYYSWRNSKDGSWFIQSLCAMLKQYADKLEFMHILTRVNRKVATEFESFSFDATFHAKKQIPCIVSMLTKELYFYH

HeLa [2] = assay: Induction of apoptosis in human HeLa cells assessed as necrotic cells at 2 to 16 uM using annexin/PI staining by fluorescence microscopy; type: functional, cell-based; conditions: TDE = time-dependent effect
HeLa [3] = assay: Induction of apoptosis in human HeLa cells assessed as DNA fragmentation at 4 to 32 uM after 12 hrs by agarose gel electrophoresis; type: functional, cell-based
Caspase-3 (Homo sapiens) [4] = target: T1, Caspase-3 (Homo sapiens); assay: Induction of caspase 3 activation in human HeLa cells using Ac-DEVD-pNA at 4 uM after 4 hrs by Bradford assay; type: cell-based
HeLa [5] = assay: Induction of apoptosis in human HeLa cells assessed as chromatin condensation at 8 uM after 12 hrs using Hoechst 33342 staining by fluorescence microscopic analysis; type: functional, cell-based
Caspase-3 (Homo sapiens) [6] = target: T1, Caspase-3 (Homo sapiens); assay: Induction of caspase 3 activation in human HeLa cells using Ac-DEVD-pNA after 4 hrs by Bradford assay; type: cell-based
HeLa [7] = assay: Induction of apoptosis in human HeLa cells assessed as increase in sub-G1 DNA content at 24 uM after 12 hrs using Propidium iodide staining by flow cytometry; type: functional, cell-based
HeLa [8] = assay: Induction of apoptosis in human HeLa cells assessed as DNA fragmentation at 16 to 32 uM after 24 hrs by agarose gel electrophoresis; type: functional, cell-based
HeLa [9] = assay: Cytotoxicity against human HeLa cells assessed as cell viability after 72 hrs by MTT assay; type: functional, cell-based
HeLa [10] = assay: Induction of apoptosis in human HeLa cells assessed as DNA fragmentation at 16 uM after 48 hrs by agarose gel electrophoresis; type: functional, cell-based
Caspase-3 (Homo sapiens) [11] = target: T1, Caspase-3 (Homo sapiens); assay: Increase in caspase 3 activation in human HeLa cells using Ac-DEVD-pNA at 12 uM after 4 hrs by Bradford assay relative to control; type: cell-based
HeLa [12] = assay: Induction of apoptosis in human HeLa cells assessed as necrotic cells after 0.5 to 4 hrs using annexin/PI staining by fluorescence microscopy; type: functional, cell-based
Vero [13] = assay: Cytotoxicity against african green monkey Vero cells assessed as cell viability after 72 hrs by MTT assay; type: cell-based; conditions: Chlorocebus sabaeus
MCF7 [14] = assay: Cytotoxicity against human MCF7 cells assessed as cell viability after 72 hrs by MTT assay; type: functional, cell-based; conditions: MCF7, 72 h
MCF7 [15] = assay: Cytotoxicity against human MCF7 cells assessed as cell viability after 48 hrs by MTT assay; type: functional, cell-based; conditions: MCF7, 48 h
HeLa [16] = assay: Cytotoxicity against human HeLa cells assessed as cell viability after 48 hrs by MTT assay; type: functional, cell-based
A549 [17] = assay: Cytotoxicity against human A549 cells assessed as cell viability after 72 hrs by MTT assay; type: functional, cell-based; conditions: A549, 72 h
Vero [18] = assay: Cytotoxicity against african green monkey Vero cells assessed as cell viability after 48 hrs by MTT assay; type: cell-based; conditions: Chlorocebus sabaeus
A549 [19] = assay: Cytotoxicity against human A549 cells assessed as cell viability after 48 hrs by MTT assay; type: functional, cell-based; conditions: A549, 48 h
HeLa [20] = assay: Induction of apoptosis in human HeLa cells assessed as phosphatidylserine externalization after 0.5 to 4 hrs using annexin/PI staining by fluorescence microscopy; type: functional, cell-based
HeLa [21] = assay: Induction of apoptosis in human HeLa cells assessed as formation of apoptotic bodies at 8 uM after 12 hrs using Hoechst 33342 staining by fluorescence microscopic analysis; type: functional, cell-based
HeLa [22] = assay: Induction of apoptosis in human HeLa cells assessed as phosphatidylserine externalization at 2 to 16 uM using annexin/PI staining by fluorescence microscopy; type: functional, cell-based; conditions: TDE = time-dependent effect
Vero [23] = assay: Selectivity index, ratio of IC50 for african green monkey Vero cells to IC50 for human MCF7 cells after 48 hrs
HeLa [24] = assay: Induction of apoptosis in human HeLa cells assessed as early apoptotic cells at 2 to 4 uM up to 4 hrs using annexin/PI staining by fluorescence microscopy; type: functional, cell-based
HeLa [25] = assay: Induction of apoptosis in human HeLa cells assessed as DNA fragmentation at 2 uM after 48 hrs by agarose gel electrophoresis; type: functional, cell-based
Caspase-3 (Homo sapiens) [26] = target: T1, Caspase-3 (Homo sapiens); assay: Induction of caspase 3 activation in human HeLa cells using Ac-DEVD-pNA at 2 uM after 4 hrs by Bradford assay; type: cell-based
HeLa [27] = assay: Induction of apoptosis in human HeLa cells assessed as DNA fragmentation by agarose gel electrophoresis; type: functional, cell-based
HeLa [28] = assay: Induction of apoptosis in human HeLa cells assessed as necrotic cells at 1 uM using annexin/PI staining by fluorescence microscopy; type: functional, cell-based; conditions: TDE = time-dependent effect
HeLa [29] = assay: Induction of apoptosis in human HeLa cells assessed as phosphatidylserine externalization at 1 uM using annexin/PI staining by fluorescence microscopy; type: functional, cell-based; conditions: TDE = time-dependent effect
HeLa [30] = assay: Increase in apoptosis in human HeLa cells at 8 uM after 12 hrs using Hoechst 33342 staining by fluorescence microscopic analysis relative to control; type: functional
HeLa [31] = assay: Induction of apoptosis in human HeLa cells assessed as late apoptotic cells at 2 to 4 uM up to 4 hrs using annexin/PI staining by fluorescence microscopy; type: functional, cell-based
HeLa [32] = assay: Induction of apoptosis in human HeLa cells at 16 uM after 2 to 4 hrs using annexin/PI staining by fluorescence microscopy; type: functional, cell-based
Caspase-3 (Homo sapiens) [33] = target: T1, Caspase-3 (Homo sapiens); assay: Induction of caspase 3 activation in human HeLa cells using Ac-DEVD-pNA at 24 uM after 8 hrs by Bradford assay; type: cell-based
HeLa [34] = assay: Induction of apoptosis in human HeLa cells at 8 uM after 2 to 4 hrs using annexin/PI staining by fluorescence microscopy; type: functional, cell-based
HeLa [35] = assay: Induction of apoptosis in human HeLa cells at 12 uM after 2 to 4 hrs using annexin/PI staining by fluorescence microscopy; type: functional, cell-based
HeLa [36] = assay: Induction of apoptosis in human HeLa cells assessed as necrotic cells at 8 uM after 1 to 2 hrs using annexin/PI staining by fluorescence microscopy; type: functional, cell-based
Caspase-3 (Homo sapiens) [37] = target: T1, Caspase-3 (Homo sapiens); assay: Increase in caspase 3 activation in human HeLa cells using Ac-DEVD-pNA at 32 uM after 4 hrs by Bradford assay relative to control; type: cell-based

Row | Structure (SMILES) | Activity (Caspase-3 (Homo sapiens) [1]) | Activity (HeLa [2]) | Activity (HeLa [3]) | Activity (Caspase-3 (Homo sapiens) [4]) | Activity (HeLa [5]) | Activity (Caspase-3 (Homo sapiens) [6]) | Activity (HeLa [8]) | IC50 (HeLa [9]) | Activity (HeLa [10]) | Activity (HeLa [12]) | IC50 (Vero [13]) | IC50 (MCF7 [14]) | IC50 (MCF7 [15]) | IC50 (HeLa [16]) | IC50 (A549 [17]) | IC50 (Vero [18]) | IC50 (A549 [19]) | Activity (HeLa [20]) | Activity (HeLa [21]) | Ratio IC50 (Vero [23]) | further results
1 | CC1=C(CO)C(=O)O[C@@H]([C@@H](C)C2=CC[C@H]3[C@@H]4C[C@H]5O[C@]56[C@@H](O)C=CC(=O)[C@]6(C)[C@H]4CC[C@]23C)C1 [WITHARISTATIN] | inactive | tde | inactive | inactive | Active | Dose-dependent effect | inactive | 2700 nM | inactive | Dose-dependent effect | 2600 nM | 300 nM | 1200 nM | 3500 nM | 2300 nM | 3400 nM | 4200 nM | Dose-dependent effect | Active | 2.8 | Activity (HeLa [7]): Active; fold change (FC) (Caspase-3 (Homo sapiens) [11]): 1; Activity (HeLa [22]): tde; Activity (HeLa [24]): Active
2 | CN[C@@H]1C[C@H]2O[C@@](C)([C@@H]1OC)n1c3ccccc3c3c4c(c5c6ccccc6n2c5c31)C(=O)NC4 |  |  |  |  |  |  |  |  |  |  |  |  |  |  |  |  |  |  |  |  | Activity (HeLa [25]): Active; Activity (Caspase-3 (Homo sapiens) [26]): Active
3 | Cc1c2oc3c(C)ccc(C(=O)N[C@@H]4C(=O)N[C@H](C(C)C)C(=O)N5CCC[C@H]5C(=O)N(C)CC(=O)N(C)[C@@H](C(C)C)C(=O)O[C@@H]4C)c3nc-2c(C(=O)N[C@@H]2C(=O)N[C@H](C(C)C)C(=O)N3CCC[C@H]3C(=O)N(C)CC(=O)N(C)[C@@H](C(C)C)C(=O)O[C@@H]2C)c(N)c1=O [DACTINOMYCIN] (I: T[dV]P[Sar][NMeV] / II: T[dV]P[Sar][NMeV]; ester I:1-I:C, II:1-II:C; linker I:N-II:N via Actinocin(1to9)) |  |  |  |  |  |  |  |  |  | Dose-dependent effect |  |  | 24 nM | 1.1 nM |  |  | 7.2 nM | Dose-dependent effect |  | 3 | Activity (HeLa [27]): Active; Activity (HeLa [28]): tde; Activity (HeLa [29]): tde
4 | CC1=C(C)C(=O)O[C@@H]([C@@H](C)[C@H]2CC=C3[C@@H]4C[C@H]5O[C@]56[C@@H](O)C=CC(=O)[C@]6(C)[C@H]4CC[C@@]32C)C1 | inactive | tde | inactive | inactive | Active | Dose-dependent effect | inactive | 2900 nM | inactive | Dose-dependent effect | 1200 nM | 300 nM | 1300 nM | 3500 nM | 2100 nM | 6200 nM | 2600 nM | Dose-dependent effect | Active | 1.7 | Activity (HeLa [30]): 27%; Activity (HeLa [22]): tde; Activity (HeLa [31]): Active; Activity (HeLa [24]): Active
5 | CC1=C(CO[Si](C)(C)C(C)(C)C)C(=O)O[C@@H]([C@@H](C)[C@H]2CC[C@H]3[C@@H]4C[C@H]5O[C@]56C(=O)C=CC(=O)[C@]6(C)[C@H]4CC[C@]23C)C1 | inactive | tde | inactive | inactive | Active | Dose-dependent effect | inactive | 2100 nM | inactive | Dose-dependent effect | 4000 nM | 200 nM | 500 nM | 1700 nM | 2900 nM | 3100 nM | 5300 nM | Dose-dependent effect | Active | 6.2 | Activity (HeLa [7]): Active; Activity (HeLa [32]): Active; Activity (Caspase-3 (Homo sapiens) [33]): Active; Activity (HeLa [34]): Active; Activity (HeLa [22]): tde; Activity (HeLa [35]): Active
6 | CC1=C(CO[Si](C)(C)C(C)(C)C)C(=O)O[C@@H]([C@@H](C)[C@H]2CC[C@H]3[C@@H]4C[C@H]5O[C@]56[C@@H](O)C=CC(=O)[C@]6(C)[C@H]4CC[C@]23C)C1 | inactive | tde | inactive | inactive | Active | Dose-dependent effect | inactive | 1000 nM | inactive | Dose-dependent effect | 900 nM | 700 nM | 700 nM | 900 nM | 1500 nM | 700 nM | 1500 nM | Dose-dependent effect | Active | 1 | Activity (HeLa [7]): Active; Activity (HeLa [36]): inactive; Activity (HeLa [22]): tde; Activity (Caspase-3 (Homo sapiens) [37]): inactive
